According to patent US12286411B2, “Indane derivatives for use in the treatment of bacterial infection” (priority 2018, dated 2025):

Legend:
[1] = target: T1, LasB elastase (dialysed supernatant from P. aeruginosa PAO1) (Pseudomonas aeruginosa, UniProt P14756); experiment: Elastin assay to determine % inhibition (Elastin Congo-Red, dialysed PAO1 supernatant); format: biochemical; conditions: read-out: Elastin hydrolysis % inhibition @ 50/25 μM inhibitor concentration
T1 construct: Culture supernatants are recovered by centrifugation and filtrated through a 0.22 μM filter; endogenous in cells; host or cells: P. aeruginosa PAO1 culture supernatant, dialysed
T1 sequence (P14756 198-498): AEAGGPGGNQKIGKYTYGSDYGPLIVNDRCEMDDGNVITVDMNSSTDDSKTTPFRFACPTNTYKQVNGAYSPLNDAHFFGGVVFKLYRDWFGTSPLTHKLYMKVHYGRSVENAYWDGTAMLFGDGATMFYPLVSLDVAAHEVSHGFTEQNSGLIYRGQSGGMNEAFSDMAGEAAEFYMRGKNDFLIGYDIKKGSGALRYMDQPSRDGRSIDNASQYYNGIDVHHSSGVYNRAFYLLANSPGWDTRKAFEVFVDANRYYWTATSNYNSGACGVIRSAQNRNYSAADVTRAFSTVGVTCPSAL
Experimental: Experiments were therefore conducted (1) to measure the potency of inhibition of compounds of the invention against purified Pseudomonas aeruginosa LasB enzyme and also experiments were conducted (2) to measure the ability of compounds of the invention to inhibit LasB-catalysed elastin degradation. The first assay uses a commercial fluorescent synthetic peptide and purified LasB enzyme. The LasB hydrolysis kinetics are measured allowing the determination of the IC50 and Ki of the inhibitors; the second is a more physiological assay using dialysed Pseudomonas aeruginosa supernatant as source of enzyme, plus its natural substrate Elastin. It is an “end point assay” that determines the percentage of LasB inhibition by each compound for one particular time point and inhibitor concentration. Technical details are described below:
The Elastin assay uses as source of enzyme dialysed supernatant from P. aeruginosa PAO1 and the Elastin Congo-Red as substrate. The natural LasB substrate, elastin, is complexed with the congo-red dye (Elastin Congo-Red, ECR). The elastolysis activity from the culture supernatant will degrade elastin and release the congo-red dye into the supernatant. This red dye release can be measured with a spectrophotometer.
Method: To determine LasB elastase activity and assess compound inhibition, an overnight culture of P. aeruginosa strain PA01 is diluted in LB medium. After reaching an ° Dam. of 0.6, this culture is diluted and incubated for additional 18-24 hours in a shaking incubator. Culture supernatants are recovered by centrifugation and filtrated through a […] filter. These supernatants are dialysed (filtration molecules <20 kDa) into a 50 mM Tris-HCl pH 7.4, 2.5 mM CaCl2 solution at 4° C. under agitation for 24 hours. Supernatant dialysed is then mixed volume/volume with the ECR suspension (20 mg/mL of ECR in 100 mM Tris-HCl pH 7.4 buffer supplemented with 1 mM CaCl2) supplemented with Triton X100 (final concentration of 0.01%) in presence of DMSO (positive control) and/or different concentrations of compound (routinely 50 to 1.56 μM). As a negative control, the dialysed supernatant is replaced by Tris-HCl solution (50 mM Tris-HCl pH 7.4, 2.5 mM CaCl2). The mixed reaction is then incubated overnight in a 37° C. shaking incubator. The reaction supernatant is recovered by centrifugation and the release of congo-red is measured by its absorbance at 495 nm (OD495nm).
Percentage inhibition is determined using the following equation: ((OD495nm value of positive control−OD495nm value of negative control)−(OD495nm value of treated supernatant OD495nm value of negative control))/(OD495nm value of positive control−OD495nm value of negative control)×100.

[2] = test system: Pseudomonas aeruginosa (PAO1); experiment: Mouse model of Pseudomonas aeruginosa lung infection; format: in vivo; conditions: mice infected intranasally with wild-type PAO1, compound i.v. 1 h and 2 h post infection, 10 and 30 mg/kg, 24 hours post infection
Experimental: Mice were dosed by intranasal inoculation of PA (PAO1), then scarified after 24 hours. The extent of infection in the lung was quantified by bacterial load (CFU determination, colony forming units) and the levels of proinflammatory IL-1β. Statistical analysis on both readouts were performed by ANOVA with a Dunnett post-test.
Compounds were administered intravenously in a two-dose regimen (1 hour and 2 hours post infection) at two different doses (10 and 30 mg/kg).

## O=C(O)CC1(C(=O)NCc2nc3ccc(OCCCO)cc3s2)Cc2ccccc2C1 [Example 1, 2-[2-[[6-(3-hydroxypropoxy)-1,3-benzothiazol-2-yl]methylcarbamoyl]indan-2-yl]acetic acid]
[1]
  inhibition at 25 µM: > 75%

## CCCOc1ccc2nc(CNC(=O)C3(CC(=O)O)Cc4ccccc4C3)sc2c1 [Example 2, 2-[2-[(6-propoxy-1,3-benzothiazol-2-yl)methylcarbamoyl]indan-2-yl]acetic acid]
[1]
  inhibition at 25 µM: > 75%

## COc1cc2sc(CNC(=O)C3(CC(=O)O)Cc4ccccc4C3)nc2cc1OCCCN(C)C [Example 3, 2-[2-[[5-[3-(dimethylamino)propoxy]-6-methoxy-1,3-benzothiazol-2-yl]methylcarbamoyl]indan-2-yl]acetic acid]
[1]
  inhibition at 25 µM: > 75%

## COc1cc2sc(CNC(=O)C3(CC(=O)[O-])Cc4ccccc4C3)nc2cc1OCCC[N+](C)(C)C [Example 4, 2-[2-[[6-methoxy-5-[3-(trimethylammonio)propoxy]-1,3-benzothiazol-2-yl]methylcarbamoyl]indan-2-yl]acetate]
[1]
  inhibition at 25 µM: > 75%
[2]; FIG. 2
  production and activation of IL-1β in the lung: inhibited the production and activation of IL-1β in mice infected by wild-type PA (PA01) at a similar level than the lasB deleted mutant
[2]; FIG. 3
  extent of infection in the lung (CFU levels): reduced the extent of infection in the lung to the level of the LasB deleted mutant

## COc1cc2sc(CNC(=O)C3(CC(=O)[O-])Cc4ccccc4C3)nc2cc1OCCOCC[N+](C)(C)C [Example 5, 2-[2-[[6-methoxy-5-[2-[2-(trimethylammonio)ethoxy]ethoxy]-1,3-benzothiazol-2-yl]methylcarbamoyl]indan-2-yl]acetate]
[1]
  inhibition at 25 µM: 60 to 75%

## COc1cc2sc(CNC(=O)C3(CC(=O)[O-])Cc4cc(F)c(F)cc4C3)nc2cc1OCCOCC[N+](C)(C)C [Example 6, 2-[5,6-difluoro-2-[[6-methoxy-5-[2-[2-(trimethylammonio)ethoxy]ethoxy]-1,3-benzothiazol-2-yl]methylcarbamoyl]indan-2-yl]acetate]
[1]
  inhibition at 25 µM: > 75%

## COc1cc2sc(CNC(=O)C3(CC(=O)[O-])Cc4cc(F)c(F)cc4C3)nc2cc1OCC[N+](C)(C)C [Example 7, 2-[5,6-difluoro-2-[[6-methoxy-5-[2-(trimethylammonio)ethoxy]-1,3-benzothiazol-2-yl]methylcarbamoyl]indan-2-yl]acetate]
[1]
  inhibition at 25 µM: 60 to 75%
